Measurements published in PubChem BioAssay (NCI).
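Growth conditions: 96-well plates. Treatment: test compound, 48 hours, 5 concentrations. Analysis: linear interpolation between bracketing concentrations; unreached endpoints set to highest concentration. TGI denotes the concentration required for complete inhibition of growth.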

What was measured:
Assay in all cases: DTP human tumour cell line panel, 48 h
[1] = system: 786-0 renal
[2] = system: A498 renal
[3] = system: A549 NSCLC
[4] = system: ACHN renal
[5] = system: BT-549 breast
[6] = system: CAKI-1 renal
[7] = system: COLO 205 colon
[8] = system: DU-145 prostate
[9] = system: EKVX NSCLC
[10] = system: HCC-2998 colon
[11] = system: HCT-116 colon
[12] = system: HCT-15 colon
[13] = system: HL-60(TB) leukemia
[14] = system: HOP-62 NSCLC
[15] = system: HOP-92 NSCLC
[16] = system: HS 578T breast
[17] = system: HT29 colon
[18] = system: IGROV1 ovarian
[19] = system: K-562 leukemia
[20] = system: KM12 colon
[21] = system: LOX IMVI melanoma
[22] = system: M14 melanoma
[23] = system: MALME-3M melanoma
[24] = system: MCF7 breast
[25] = system: MDA-MB-231 breast
[26] = system: MDA-MB-435
[27] = system: MDA-N
[28] = system: MOLT-4 leukemia
[29] = system: NCI-H226 lung
[30] = system: NCI-H460 lung
[31] = system: NCI-H522 lung
[32] = system: NCI/ADR-RES ovarian
[33] = system: OVCAR-3 ovarian
[34] = system: OVCAR-4 ovarian
[35] = system: OVCAR-5 ovarian
[36] = system: OVCAR-8 ovarian
[37] = system: PC-3 prostate
[38] = system: RPMI-8226 leukemia
[39] = system: RXF 393 renal
[40] = system: SF-268 CNS
[41] = system: SF-295 CNS
[42] = system: SF-539 CNS
[43] = system: SK-MEL-2 melanoma
[44] = system: SK-MEL-28 melanoma
[45] = system: SK-MEL-5 melanoma
[46] = system: SK-OV-3 ovarian
[47] = system: SN12C renal
[48] = system: SNB-19 CNS
[49] = system: SNB-75 CNS
[50] = system: SW-620 colon
[51] = system: T-47D breast
[52] = system: TK-10 renal
[53] = system: U251 CNS
[54] = system: UACC-257 melanoma
[55] = system: UACC-62 melanoma
[56] = system: UO-31 renal

Compound: O=C(O)c1c(Br)c(Br)c(Br)c(Br)c1C1c2ccc(O)cc2Oc2cc(O)ccc21
- TGI [1]: > 100 µM
- TGI [2]: > 100 µM
- TGI [3]: > 100 µM
- TGI [4]: > 100 µM
- TGI [5]: > 100 µM
- TGI [6]: > 100 µM
- TGI [7]: > 100 µM
- TGI [8]: > 100 µM
- TGI [9]: > 100 µM
- TGI [10]: > 100 µM
- TGI [11]: > 100 µM
- TGI [12]: > 100 µM
- TGI [13]: 30.1 µM
- TGI [14]: > 100 µM
- TGI [15]: > 100 µM
- TGI [16]: > 100 µM
- TGI [17]: > 100 µM
- TGI [18]: > 100 µM
- TGI [19]: > 100 µM
- TGI [20]: > 100 µM
- TGI [21]: > 100 µM
- TGI [22]: > 100 µM
- TGI [23]: > 100 µM
- TGI [24]: > 100 µM
- TGI [25]: > 100 µM
- TGI [26]: > 100 µM
- TGI [27]: > 100 µM
- TGI [28]: > 100 µM
- TGI [29]: > 100 µM
- TGI [30]: > 100 µM
- TGI [31]: > 100 µM
- TGI [32]: > 100 µM
- TGI [33]: > 100 µM
- TGI [34]: > 100 µM
- TGI [35]: > 100 µM
- TGI [36]: > 100 µM
- TGI [37]: > 100 µM
- TGI [38]: > 100 µM
- TGI [39]: > 100 µM
- TGI [40]: > 100 µM
- TGI [41]: > 100 µM
- TGI [42]: > 100 µM
- TGI [43]: > 100 µM
- TGI [44]: > 100 µM
- TGI [45]: > 100 µM
- TGI [46]: > 100 µM
- TGI [47]: > 100 µM
- TGI [48]: > 100 µM
- TGI [49]: > 100 µM
- TGI [50]: > 100 µM
- TGI [51]: > 100 µM
- TGI [52]: > 100 µM
- TGI [53]: > 100 µM
- TGI [54]: > 100 µM
- TGI [55]: > 100 µM
- TGI [56]: > 100 µM
